In ChEMBL document CHEMBL1151996, “Structure-activity relationships of anti-HIV-1 N-alkoxy- and N-allyloxy-benzimidazoles” (Bioorg Med Chem Lett, 1997):

Tests used:
C8166 [1] = test: Tested against HIV-1 […] for Inhibition of viral replication by determining reduction of syncytia formation and antigen gp120 in C8166 cells, estimated by ELISA; type: functional, cell-based; conditions: Homo sapiens
C8166 [2] = test: Compound was evaluated for its cytotoxicity against C8166 cell line; type: functional; conditions: Homo sapiens, read-out: TC50 (the source's name)

Structure (SMILES) | EC50 (C8166 [1]) [µM] | CC50 (C8166 [2]) [µM]
CCCCCCCOn1c(CCCCCC)nc2c(C)cccc21 | 40 | –
C=CCOn1c(C=C)nc2ccc(C)cc21 | 16 | 20
CC(C)=CCN1Cc2cc(Cl)cc3[nH]c(=S)n(c23)C[C@@H]1C | – | 62
C=CCOn1c(C=C)nc2c(C)cccc21 | 16 | 16
Cc1cn([C@H]2C[C@H](N=[N+]=[N-])[C@@H](CO)O2)c(=O)[nH]c1=O [ZIDOVUDINE] | – | > 1000
COc1ccc2nc(C=C(C)C)n(OCC=C(C)C)c2c1 | 16 | 80
C=CCOn1c(C=C)nc2ccc(OC)cc21 | 80 | 80
CC(C)=CCOn1c(C=C(C)C)nc2ccc(C)cc21 | 10 | 50

Continued, in another order:

EC50 (C8166 [1]) [µM] | Structure (SMILES) | CC50 (C8166 [2]) [µM]
10 | CC(C)=CCOn1c(C=C(C)C)nc2c(C)cccc21 | 50
8 | CCOn1c(C)nc2c(C)cccc21 | –
8 | CCCCCOn1c(CCCC)nc2c(C)cccc21 | –
0.5 | CCCCOn1c(CCC)nc2c(C)cccc21 | –
